Patent US8877759B2, “Aminopyrazines as ATR kinase inhibitors” (Vertex Pharnaceuticals Incorporated, priority 2011, dated 2014)
Where two headings read alike, the source gives them in different places.

Target: T1, full-length ATR (Homo sapiens, UniProt Q13535)
T1 construct: Assays were carried out at 25° C. in the presence of 5 nM full-length ATR
Assay: ATR Inhibition Assay (radioactive-phosphate incorporation)
Assay type: biochemical
Experimental: Compounds were screened for their ability to inhibit ATR kinase using a radioactive-phosphate incorporation assay. Assays were carried out in a mixture of 50 mM Tris/HCl (pH 7.5), 10 mM MgCl2 and 1 mM DTT.
Assays were carried out at 25° C. in the presence of 5 nM full-length ATR. An assay stock buffer solution was prepared containing all of the reagents listed above, with the exception of ATP and the test compound of interest. […] The plate was pre-incubated for 10 minutes at 25° C. and the reaction initiated by addition of 15 μL [γ-33P]ATP (final concentration 10 μM).
The reaction was stopped after […] by the addition of 30 μL 0.1M phosphoric acid containing 2 mM ATP. A multiscreen phosphocellulose filter 96-well plate (Millipore, Cat no. MAPHN0B50) was pretreated with 100 μL 0.2M phosphoric acid prior to the addition of 45 μL of the stopped assay mixture. The plate was washed with 5×200 μL 0.2M phosphoric acid.
After removing mean background values for all of the data points, Ki(app) data were calculated from non-linear regression analysis of the initial rate data using the Prism software package (GraphPad Prism version 3.0cx for Macintosh, GraphPad Software, San Diego Calif., USA).

[1] = Ki(app), 5 nM full-length ATR, 10 μM [γ-33P]ATP, 800 μM target peptide, 25° C.

T1 sequence (Q13535 whole entry): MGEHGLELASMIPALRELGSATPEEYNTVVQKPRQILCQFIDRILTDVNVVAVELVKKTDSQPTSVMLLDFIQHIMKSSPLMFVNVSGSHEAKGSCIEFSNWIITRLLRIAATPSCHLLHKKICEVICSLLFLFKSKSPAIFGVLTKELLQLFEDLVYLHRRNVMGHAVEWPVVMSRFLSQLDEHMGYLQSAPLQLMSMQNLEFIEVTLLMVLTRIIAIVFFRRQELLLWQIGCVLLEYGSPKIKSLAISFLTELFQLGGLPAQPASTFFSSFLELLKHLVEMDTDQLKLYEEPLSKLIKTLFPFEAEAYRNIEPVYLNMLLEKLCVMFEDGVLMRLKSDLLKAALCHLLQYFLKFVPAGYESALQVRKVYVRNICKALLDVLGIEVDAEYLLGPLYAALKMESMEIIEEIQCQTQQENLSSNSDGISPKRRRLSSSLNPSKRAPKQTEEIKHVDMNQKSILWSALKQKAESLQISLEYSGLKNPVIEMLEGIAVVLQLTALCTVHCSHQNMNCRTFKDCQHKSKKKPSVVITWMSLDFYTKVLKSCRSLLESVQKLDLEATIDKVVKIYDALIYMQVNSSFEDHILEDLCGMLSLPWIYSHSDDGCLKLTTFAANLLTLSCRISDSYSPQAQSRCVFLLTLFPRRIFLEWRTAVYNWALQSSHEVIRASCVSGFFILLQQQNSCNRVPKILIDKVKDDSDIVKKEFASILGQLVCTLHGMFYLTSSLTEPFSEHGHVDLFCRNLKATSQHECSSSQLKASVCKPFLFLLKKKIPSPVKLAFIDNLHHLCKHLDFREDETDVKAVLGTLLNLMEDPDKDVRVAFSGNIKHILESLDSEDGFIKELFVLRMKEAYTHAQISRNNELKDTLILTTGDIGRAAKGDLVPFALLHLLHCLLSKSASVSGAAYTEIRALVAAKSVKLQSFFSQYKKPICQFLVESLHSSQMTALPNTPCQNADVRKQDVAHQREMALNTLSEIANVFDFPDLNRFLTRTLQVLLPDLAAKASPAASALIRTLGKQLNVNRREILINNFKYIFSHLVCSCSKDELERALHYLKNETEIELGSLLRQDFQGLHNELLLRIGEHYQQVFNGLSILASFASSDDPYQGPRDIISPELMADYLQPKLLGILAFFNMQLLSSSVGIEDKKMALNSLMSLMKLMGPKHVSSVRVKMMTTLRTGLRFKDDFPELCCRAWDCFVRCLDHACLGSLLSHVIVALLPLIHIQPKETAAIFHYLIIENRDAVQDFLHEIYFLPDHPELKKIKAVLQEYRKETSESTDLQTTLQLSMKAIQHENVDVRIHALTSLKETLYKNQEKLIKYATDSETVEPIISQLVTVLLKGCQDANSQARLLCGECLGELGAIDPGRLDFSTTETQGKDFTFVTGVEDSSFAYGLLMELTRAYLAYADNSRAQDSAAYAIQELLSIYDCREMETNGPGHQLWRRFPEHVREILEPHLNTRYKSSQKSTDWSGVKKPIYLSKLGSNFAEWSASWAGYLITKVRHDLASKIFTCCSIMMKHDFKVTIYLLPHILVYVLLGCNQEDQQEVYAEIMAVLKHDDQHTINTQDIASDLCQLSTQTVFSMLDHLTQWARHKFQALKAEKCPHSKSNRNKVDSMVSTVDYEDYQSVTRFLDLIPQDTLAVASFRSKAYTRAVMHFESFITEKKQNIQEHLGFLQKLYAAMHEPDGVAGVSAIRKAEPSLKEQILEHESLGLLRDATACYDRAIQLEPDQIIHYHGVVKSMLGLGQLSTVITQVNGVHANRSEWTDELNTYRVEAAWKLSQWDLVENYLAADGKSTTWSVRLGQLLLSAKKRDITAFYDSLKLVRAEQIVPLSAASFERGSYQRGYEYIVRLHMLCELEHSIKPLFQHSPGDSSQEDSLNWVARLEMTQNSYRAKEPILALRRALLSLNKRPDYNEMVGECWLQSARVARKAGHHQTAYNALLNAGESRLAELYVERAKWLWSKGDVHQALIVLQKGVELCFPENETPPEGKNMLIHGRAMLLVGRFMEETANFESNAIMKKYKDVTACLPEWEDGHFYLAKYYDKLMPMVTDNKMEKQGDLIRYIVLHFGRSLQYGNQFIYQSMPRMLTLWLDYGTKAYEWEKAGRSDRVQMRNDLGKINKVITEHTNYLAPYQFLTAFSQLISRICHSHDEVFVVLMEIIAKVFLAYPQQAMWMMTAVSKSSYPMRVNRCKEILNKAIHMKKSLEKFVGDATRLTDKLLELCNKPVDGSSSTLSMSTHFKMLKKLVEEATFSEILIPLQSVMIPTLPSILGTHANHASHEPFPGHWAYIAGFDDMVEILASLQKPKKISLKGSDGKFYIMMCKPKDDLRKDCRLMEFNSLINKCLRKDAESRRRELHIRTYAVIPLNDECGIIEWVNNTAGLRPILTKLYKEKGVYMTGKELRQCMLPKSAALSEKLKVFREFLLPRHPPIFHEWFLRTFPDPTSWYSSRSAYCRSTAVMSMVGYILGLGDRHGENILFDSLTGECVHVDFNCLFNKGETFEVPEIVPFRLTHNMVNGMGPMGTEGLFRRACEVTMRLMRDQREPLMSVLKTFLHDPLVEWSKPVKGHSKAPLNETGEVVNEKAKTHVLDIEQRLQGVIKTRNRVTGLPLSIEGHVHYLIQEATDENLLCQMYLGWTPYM

For `CNCc1ccc(-c2cc(-c3nc(-c4ccnc(C(C)(C)C#N)c4)cnc3N)on2)cc1` [Compound I-1, 2-[4-[5-amino-6-[3-[4-(methylaminomethyl)phenyl]isoxazol-5-yl]pyrazin-2-yl]-2-pyridyl]-2-methyl-propanenitrile], the Ki was under 1 nM.

For `CCC(C#N)(CC)c1cc(-c2cnc(N)c(-c3cc(-c4ccc(CNC)cc4)no3)n2)ccn1` [Compound I-2, 2-[4-[5-amino-6-[3-[4-(methylaminomethyl)phenyl]isoxazol-5-yl]pyrazin-2-yl]-2-pyridyl]-2-ethyl-butanenitrile], the Ki was under 1 nM.

`CCC(C#N)c1cc(-c2cnc(N)c(-c3cc(-c4ccc(CNC)cc4)no3)n2)ccn1` (stereo not drawn) [Compound I-3, 2-[4-[5-amino-6-[3-[4-(methylaminomethyl)phenyl]isoxazol-5-yl]pyrazin-2-yl]-2-pyridyl]butanenitrile] gave a Ki of under 1 nM.

For `CNCc1ccc(-c2nnc(-c3nc(-c4ccnc(C(C)(C)C#N)c4)cnc3N)o2)cc1` [Compound I-4, 2-[4-[5-amino-6-[5-[4-(methylaminomethyl)phenyl]-1,3,4-oxadiazol-2-yl]pyrazin-2-yl]-2-pyridyl]-2-methyl-propanenitrile], the Ki was under 1 nM.

`CC(C)(C#N)c1cc(-c2cnc(N)c(-c3cc(-c4ccccc4)no3)n2)ccn1` [Compound I-5, 2-[4-[5-amino-6-(3-phenylisoxazol-5-yl)pyrazin-2-yl]-2-pyridyl]-2-methyl-propanenitrile] gave a Ki of under 1 nM.

With `N#CC1(c2cc(-c3cnc(N)c(-c4cc(-c5ccccc5)no4)n3)ccn2)CCNCC1` [Compound I-6, 4-[4-[5-amino-6-(3-phenylisoxazol-5-yl)pyrazin-2-yl]-2-pyridyl]piperidine-4-carbonitrile] the “ATR Ki” value [1] was “+++ (Compounds with a Ki value >5 nM but ≦1 nM are marked with “+++.”)”.

`N#CC1(c2cc(-c3cnc(N)c(-c4cc(-c5ccccc5)no4)n3)ccn2)CCOCC1` [Compound I-7, 4-[4-[5-amino-6-(3-phenylisoxazol-5-yl)pyrazin-2-yl]-2-pyridyl]tetrahydropyran-4-carbonitrile] was tested, and the Ki was under 1 nM.

With `Cc1ccsc1-c1cc(-c2nc(-c3ccnc(C(C)(C)C#N)c3)cnc2N)on1` [Compound I-8, 2-[4-[5-amino-6-[3-(3-methyl-2-thienyl)isoxazol-5-yl]pyrazin-2-yl]-2-pyridyl]-2-methyl-propanenitrile] the Ki was under 1 nM.

`CNCc1ccc(-c2cc(-c3nc(-c4ccnc(C5(C#N)CCOCC5)c4)cnc3N)on2)cc1` [Compound I-9, 4-[4-[5-amino-6-[3-[4-(methylaminomethyl)phenyl]isoxazol-5-yl]pyrazin-2-yl]-2-pyridyl]tetrahydropyran-4-carbonitrile] was tested, and the Ki was under 1 nM.

With `CNCc1ccc(-c2cc(-c3nc(-c4ccnc(C(C)(C)C(N)=O)c4)cnc3N)on2)cc1` [Compound I-10, 2-[4-[5-amino-6-[3-[4-(methylaminomethyl)phenyl]isoxazol-5-yl]pyrazin-2-yl]-2-pyridyl]-2-methyl-propanamide] the Ki was under 1 nM.

In the case of `CNCc1ccc(-c2cc(-c3nc(-c4ccnc(C(C)(C)C(=O)N(C)C)c4)cnc3N)on2)cc1` [Compound I-11, 2-[4-[5-amino-6-[3-[4-(methylaminomethyl)phenyl]isoxazol-5-yl]pyrazin-2-yl]-2-pyridyl]-N,N,2-trimethyl-propanamide], the Ki is reported as under 1 nM.

For `N#CC1(c2cc(-c3cnc(N)c(-c4cc(-c5ccccc5)no4)n3)ccn2)CCCNC1` (stereo not drawn) [Compound I-12, 3-[4-[5-amino-6-(3-phenylisoxazol-5-yl)pyrazin-2-yl]-2-pyridyl]piperidine-3-carbonitrile], the “ATR Ki” value [1] was “+++ (Compounds with a Ki value >5 nM but ≦1 nM are marked with “+++.”)”.

Work on `CNCc1ccc(-c2cc(-c3nc(-c4ccnc(C5(C(N)=O)CCOCC5)c4)cnc3N)on2)cc1` [Compound I-13, 4-[4-[5-amino-6-[3-[4-(methylaminomethyl)phenyl]isoxazol-5-yl]pyrazin-2-yl]-2-pyridyl]tetrahydropyran-4-carboxamide] yielded a Ki of under 1 nM.

With `CNCc1ccc(-c2cc(-c3nc(-c4ccnc(C(C)(C)S(C)(=O)=O)c4)cnc3N)on2)cc1` [Compound I-14, 3-[3-[4-(methylaminomethyl)phenyl]isoxazol-5-yl]-5-[2-(1-methyl-1-methylsulfonyl-ethyl)-4-pyridyl]pyrazin-2-amine] the Ki was under 1 nM.

In the case of `CNCc1ccc(-c2cc(-c3nc(-c4ccnc(C(C)S(C)(=O)=O)c4)cnc3N)on2)cc1` (stereo not drawn) [Compound I-15, 3-[3-[4-(methylaminomethyl)phenyl]isoxazol-5-yl]-5-[2-(1-methylsulfonylethyl)-4-pyridyl]pyrazin-2-amine], the Ki is reported as under 1 nM.

With `CC(C)(C#N)c1cc(-c2cnc(N)c(-c3cc(-c4ccc(C(N)CF)cc4)no3)n2)ccn1` (stereo not drawn) [Compound I-16, 2-[4-[5-amino-6-[3-[4-(1-amino-2-fluoro-ethyl)phenyl]isoxazol-5-yl]pyrazin-2-yl]-2-pyridyl]-2-methyl-propanenitrile] the Ki was under 1 nM.

Work on `CC(C)(C#N)c1cc(-c2cnc(N)c(-c3cc(-c4ccc(CN[C@@H]5CCOC5)cc4)no3)n2)ccn1` [Compound I-17, 2-[4-[5-amino-6-[3-[4-[[[(3R)-tetrahydrofuran-3-yl]amino]methyl]phenyl]isoxazol-5-yl]pyrazin-2-yl]-2-pyridyl]-2-methyl-propanenitrile] yielded a Ki of under 1 nM.

Compound `CC(C)(C#N)c1cc(-c2cnc(N)c(-c3cc(-c4ccc(CNC5COC5)cc4)no3)n2)ccn1` [Compound I-18, 2-[4-[5-amino-6-[3-[4-[(oxetan-3-ylamino)methyl]phenyl]isoxazol-5-yl]pyrazin-2-yl]-2-pyridyl]-2-methyl-propanenitrile] has a Ki of under 1 nM.

For `CC(C)(C#N)c1cc(-c2cnc(N)c(-c3cc(-c4ccc(CN[C@H]5CCOC5)cc4)no3)n2)ccn1` [Compound I-19, 2-[4-[5-amino-6-[3-[4-[[[(3S)-tetrahydrofuran-3-yl]amino]methyl]phenyl]isoxazol-5-yl]pyrazin-2-yl]-2-pyridyl]-2-methyl-propanenitrile], the Ki [1] was under 1 nM.

Compound `CC(C)(C(=O)N1CCNCC1)c1cc(-c2cnc(N)c(-c3cc(-c4ccccc4)no3)n2)ccn1` [Compound I-20, 2-[4-[5-amino-6-(3-phenylisoxazol-5-yl)pyrazin-2-yl]-2-pyridyl]-2-methyl-1-piperazin-1-yl-propan-1-one] has a Ki of 5 to 20 nM.

Compound `CC(C)(C(=O)NCCN1CCOCC1)c1cc(-c2cnc(N)c(-c3cc(-c4ccccc4)no3)n2)ccn1` [Compound I-21, 2-[4-[5-amino-6-(3-phenylisoxazol-5-yl)pyrazin-2-yl]-2-pyridyl]-2-methyl-N-(2-morpholinoethyl)propanamide] has a Ki of 5 to 20 nM.

With `CC(C)(c1cc(-c2cnc(N)c(-c3cc(-c4ccccc4)no3)n2)ccn1)S(C)(=O)=O` [Compound I-22, 5-[2-(1-methyl-1-methylsulfonyl-ethyl)-4-pyridyl]-3-(3-phenylisoxazol-5-yl)pyrazin-2-amine] the Ki was under 1 nM.

`CC(C)(c1cc(-c2cnc(N)c(-c3cc(-c4ccccc4)no3)n2)ccn1)S(=O)(=O)C1CCNCC1` [Compound I-23, 5-[2-[1-methyl-1-(4-piperidylsulfonyl)ethyl]-4-pyridyl]-3-(3-phenylisoxazol-5-yl)pyrazin-2-amine] was tested, and the “ATR Ki” value [1] was “+++ (Compounds with a Ki value >5 nM but ≦1 nM are marked with “+++.”)”.

In the case of `Cc1ccsc1-c1cc(-c2nc(-c3ccnc(C4(C#N)CCNCC4)c3)cnc2N)on1` [Compound I-24, 4-[4-[5-amino-6-[3-(3-methyl-2-thienyl)isoxazol-5-yl]pyrazin-2-yl]-2-pyridyl]piperidine-4-carbonitrile], the “ATR Ki” value [1] is reported as “+++ (Compounds with a Ki value >5 nM but ≦1 nM are marked with “+++.”)”.

For `Cc1ccccc1-c1cc(-c2nc(-c3ccnc(C4(C#N)CCNCC4)c3)cnc2N)on1` [Compound I-25, 4-[4-[5-amino-6-[3-(o-tolyl)isoxazol-5-yl]pyrazin-2-yl]-2-pyridyl]piperidine-4-carbonitrile], the Ki was 5 to 20 nM.

For `N#CC1(c2cc(-c3cnc(N)c(-c4cc(-c5ccccc5O)no4)n3)ccn2)CCNCC1` [Compound I-26, 4-[4-[5-amino-6-[3-(2-hydroxyphenyl)isoxazol-5-yl]pyrazin-2-yl]-2-pyridyl]piperidine-4-carbonitrile], the “ATR Ki” value [1] was “+++ (Compounds with a Ki value >5 nM but ≦1 nM are marked with “+++.”)”.

`COc1ccccc1-c1cc(-c2nc(-c3ccnc(C4(C#N)CCNCC4)c3)cnc2N)on1` [Compound I-27, 4-[4-[5-amino-6-[3-(2-methoxyphenyl)isoxazol-5-yl]pyrazin-2-yl]-2-pyridyl]piperidine-4-carbonitrile] was tested, and the “ATR Ki” value [1] was “+++ (Compounds with a Ki value >5 nM but ≦1 nM are marked with “+++.”)”.

For `N#CC1(c2cc(-c3cnc(N)c(-c4cc(-c5ccccc5F)no4)n3)ccn2)CCNCC1` [Compound I-28, 4-(4-(5-amino-6-(3-(2-fluorophenyl)isoxazol-5-yl)pyrazin-2-yl)pyridin-2-yl)piperidine-4-carbonitrile], the “ATR Ki” value [1] was “+++ (Compounds with a Ki value >5 nM but ≦1 nM are marked with “+++.”)”.

Work on `COc1cccc(C)c1-c1cc(-c2nc(-c3ccnc(C4(C#N)CCNCC4)c3)cnc2N)on1` [Compound I-29, 4-[4-[5-amino-6-[3-(2-methoxy-6-methyl-phenyl)isoxazol-5-yl]pyrazin-2-yl]-2-pyridyl]piperidine-4-carbonitrile] yielded a Ki of 20 to 100 nM.

For `N#CC1(c2cc(-c3cnc(N)c(-c4cc(-c5cccs5)no4)n3)ccn2)CCNCC1` [Compound I-30, 4-[4-[5-amino-6-[3-(2-thienyl)isoxazol-5-yl]pyrazin-2-yl]-2-pyridyl]piperidine-4-carbonitrile], the Ki was under 1 nM.
